What was measured:
HDAC = assay: Histone Deacetylase (HDAC) activity assay (fluorometric kit); assay type: biochemical; conditions: 2 μM
Protocol: HDAC enzymatic activities of compounds were measured by fluorometric HDAC Activity Assay kit (Abcam. #ab156064). Trichostatin A, a known HDAC inhibitor, was used as the positive control. All the values are the average of triple determination with the s.d. indicated by error bars. **P<0.01 versus the corresponding control value.
Histone Deacetylase (HDAC) activity assay: Histone Deacetylase (HDAC) activity assay kit (ab156064) was purchased from Abcam, and the effects of the tested compounds on HDAC activity were examined according to the manufacturers specifications.

Wnt/β-catenin signaling = assay: Luciferase reporter assay (Super8XTOPFlash) for Wnt/β-catenin signaling in HEK293 cells; assay type: cell-based; conditions: 24 h; for EC50: Homo sapiens, Wnt3A plasmid-transfected HEK293 cells, 30-30,000 nM, mean and SD of 3-7 independent experiments; for Wnt reporter activity / activation of Wnt/β-catenin signaling: HEK293 cells
Protocol: (A) structures of niciosamide and CI-994; (B) HEK293 cells were transfected with Super8XTOPFlash and β galactosidase vectors along with Wnt3A or control vector. After 24 hours incubation, cells were treated with CI-994 at the indicated concentration for 24 hr. The luciferase activity was then measured and normalized to the activity of the β-galactosidase. (C) HT1080 cells stably transduced LRP6 with HA tag were treated with niciosamide and CI-994 at the indicated concentrations for 24 h. The levels of HA-LRP6 were examined by Western blot with anti-HA antibody. (D) Western blots showing the depletion of LRP6 after 2 days of transiently transfection of 50 nM LRP6 siRNA in HEK293 cells. ON-TARGETplus double-stranded siRNA oligomers against human LRP6 and non-specific scrambled siRNA control (Stealth RNAi™ siRNA Negative Control, Med GC) were purchased from Thermo Scientific. siRNA LRP6-1, siRNA LRP6-2 and control siRNA were Thermo Scientific catalog numbers J-003845-09, J-003845-11 and 12935300, respectively. (E) HEK293 cells were transfected with LRP6 siRNAs, and after 8 h incubation were further transfected with Super8XTOPFlash construct and β galactosidase-expressing vector. After 24 h incubation, the cells were treated with CI-994 (16 μM) for 24 h. The luciferase activity was then measured and normalized to β-galactosidase activity. All the values are the average of triplicate determinations with the SD values indicated by error bars. **P<0.01 versus corresponding control value.
HEK293 cells were transfected with SuperXTOPFlash and β-galactosidase vectors along with Wnt3A or control vector. After 24 h incubation, cells were treated with 1015 or 1039 at the indicated concentrations for 24 h. The luciferase activity was then measured and normalized to the activity of the β-galactosidase. All the values are the average of triplicate determinations with the SD values indicated by error bars. This experiment is representative of at least three such experiments performed with similar data.
Luciferase reporter assay for Wnt/β-catenin signaling: HEK293 cells were plated into 24-well plates. After overnight culture, the cells were transiently transfected with the Super8XTOPFlash luciferase construct and β-galactosidase-expressing vector along with or without Wnt3A plasmid. After 24 h incubation, cells were treated with each individual compound at the indicated concentrations for 24 h. Cells were then lysed and both luciferase and β-galactosidase activities were determined. The luciferase activity was normalized to the β-galactosidase activity.
HEK293 cells were plated into 24-well plates. After overnight culture, the cells were transiently transfected with the Super8XTOPFlash luciferase construct and β-galactosidase-expressing vector along with the Wnt3A plasmid. After 24 h incubation, the cells were treated with each individual compound at 30-30,000 nM in triplication for 24 h. The cells were then lysed, and luciferase and β-galactosidase activities were determined with the luciferase assay system (Promega, Cat. #E1501) and β-galactosidase assay system (Promega, Cat. #E2000), respectively. The luciferase activity was normalized to the s-galactosidase activity, and the EC50 values were calculated by use of GraphPad software, and shown in the below table. All the EC50 values (mean and SD) are from 3-7 independent experiments.

[1] = Metabolic stability in mouse liver microsomes; assay type: in vitro ADME; conditions: 2 μM, five time points over 40 min, NADPH
Protocol: Metabolic stability of several compounds (1009, 1011, 1015, 1020, and 1056) and 2 reference compounds (propranolol and imipramine) were determined in mouse liver microsomes at five time points over 40 min using HPLC-MS. Metabolic stability is defined as the percentage of parent compound lost over time in the presence of a metabolically active test system.
Metabolic stability in mouse liver microsomes: Mouse hepatic microsomes were isolated from pooled, perfused livers of Balb/c male mice according to the standard protocol. The batch of microsomes was tested for quality control using Imipramine, Propranolol and Verapamil as reference compounds. Microsomal incubations were carried out in 96-well plates in 5 aliquots of 40 μL each (one for each time point). Liver microsomal incubation medium contained PBS (100 mM, pH 7.4), MgCl2 (3.3 mM), NADPH (3 mM), glucose-6-phosphate (5.3 mM), glucose-6-phosphate dehydrogenase (0.67 units/ml) with 0.42 mg of liver microsomal protein per ml. Control incubations were performed replacing the NADPH-cofactor system with PBS. Test compound (2 μM, final solvent concentration 1.6%) was incubated with microsomes at 37° C., shaking at 100 rpm. Incubations were performed in duplicates. Five time points over 40 minutes had been analyzed. The reactions were stopped by adding 12 volumes of 90% acetonitrile-water to incubation aliquots, followed by protein sedimentation by centrifuging at 5500 rpm for 3 minutes. […]. Supernatants were analyzed using the HPLC system coupled with tandem mass spectrometer.
The elimination constant (kel), half-life (t1/2) and intrinsic clearance (Clint) were determined in plot of […] versus time, using linear regression analysis: […]

BACE1 = BACE1 expression in N2a cells by Western blotting; assay type: cell-based; conditions: 24 h
Protocol: (A,C) N2a cells were treated with CI-994 at the indicated concentration for 24 h, and the levels of β-catenin (A) and BACE1 (C) were examined by Western blotting. (B,D) The band intensity of β-catenin and BACE1 was quantified and normalized to the corresponding signal for actin. The results represented in the histograms are shown as the mean±SD and are the average of three independent experiments. *P<0.05, **P<0.01 versus corresponding control value.
N2a cells were treated with 1015 and 1020 at the indicated concentrations for 24 h. (A) the levels of BACE1 expression were examined by Western blotting. (B) The intensity of BACE1 bands were quantified and normalized to the corresponding signal for actin. The results represented in the histograms are shown as the mean±SD and are the average of 3-4 independent experiments. *P<0.05, **P<0.01 versus corresponding control value.
Western blotting: Cells in 6-well plates were lysed in 0.5 ml of lysis buffer (phosphate-buffered saline containing 1% Triton X-100, 1× Proteinase inhibitor cocktail Complete, and 1 mM PMSF) at 4° C. for 15 min. Equal quantities of protein were subjected to SDS-PAGE under reducing conditions. Following transfer to immobilon-P transfer membrane, successive incubations with a primary antibody, and a horseradish peroxidase-conjugated secondary antibody or IRDye® 680RD goat anti-rabbit/mouse secondary antibodies were carried out for 60-120 min at room temperature. The immunoreactive proteins were then detected using the ECL system or the Odyssey infrared imaging system (LI-COR). Films showing immunoreactive bands were scanned by Hp Scanjet 5590.

Compound	inhibitory effects on HDAC activity (HDAC)	EC50 (Wnt/β-catenin signaling) [nM]	stability in mouse hepatic microsomal system [1]	Wnt reporter activity / activation of Wnt/β-catenin signaling (Wnt/β-catenin signaling)	BACE1 expression (BACE1; CI-994 at the indicated concentration)	BACE1 expression (BACE1; 0.8 μM and 1.6 μM)
CC1CCCC(C)N1CCNC(=O)c1ccc(C(=O)Nc2ccccc2N)nc1 (centres unmarked) [Compound 1011]	do not display any inhibitory effects	920 ± 455	good stability			
CC(=O)Nc1ccc(C(=O)Nc2ccccc2N)cc1 [CI-994, 4-(acetylamino)-N-(2-aminophenyl)benzamide, reference compound]				increased	deceased	
Nc1ccccc1NC(=O)c1ccc(C(=O)NCCN2CCC3(CCCCC3)CC2)cc1 [Compound 1020]	do not display any inhibitory effects	860 ± 278	unstable			significantly inhibited
Nc1ccccc1NC(=O)c1ccc(C(=O)NCC2CCN2C2CCCC2)cn1 (centres unmarked) [Compound 1015]	do not display any inhibitory effects	623 ± 212	good stability	activate		significantly inhibited

Reference: US20220267271A1, “WNT ACTIVATORS AND METHODS OF USE” (MAYO FOUNDATION FOR MEDICAL EDUCATION AND RESEARCH, priority 2019, published 2022)
